Data as given in ChEMBL document CHEMBL1201862, “PubChem BioAssay data set” (2004).
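Dose response: 5 concentrations. Exposure: 48 h. Format: 96-well plates. Endpoint: linear interpolation; highest concentration if not reached. Here, GI50 denotes the concentration required for 50% inhibition of growth.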 Activity calls are given as the source filed them. Rule as the data show it: active = GI50 up to about 1.1 µM and inactive = higher. Where a SMILES comes first, the peptide text is derived from it. The star is where a group is joined. Boc = CC(C)(C)OC(=O)*; OBn = c1ccc(CO*)cc1

Columns and labels:
Assay in all cases: NCI-60 cell line screen, 48 h
[1] = test system: EKVX
[2] = test system: OVCAR-4
[3] = test system: COLO 205
[4] = test system: Malme-3M
[5] = test system: UACC-62
[6] = test system: SW-620
[7] = test system: A549
[8] = test system: 786-0
[9] = test system: OVCAR-5
[10] = test system: UO-31
[11] = test system: SNB-75
[12] = test system: SNB-19
[13] = test system: CAKI-1
[14] = test system: K562
[15] = test system: SF-295
[16] = test system: Hs-578T
[17] = test system: MDA-MB-435
[18] = test system: PC-3
[19] = test system: MDA-MB-231

Compound	GI50 [1]	GI50 [2]	GI50 [3]	GI50 [4]	GI50 [5]	GI50 [6]	GI50 [7]	GI50 [8]	GI50 [9]	GI50 [10]	GI50 [11]	GI50 [12]	GI50 [13]	GI50 [14]	GI50 [15]	GI50 [16]	GI50 [17]	GI50 [18]	GI50 [19]
OCC(O)C(O)C(O)c1nn(-c2ccc(F)cc2)c2nc3cc(Cl)c(Cl)cc3nc12 (configuration not stated)	18.9 µM (inactive)	6.21 µM (inactive)	69 µM (inactive)	9.51 µM (inactive)	16.9 µM (inactive)	26.4 µM (inactive)	13.3 µM (inactive)	17.3 µM (inactive)	> 100 µM (inactive)	33.5 µM (inactive)	3.94 µM (inactive)	18.3 µM (inactive)	21.7 µM (inactive)	17.6 µM (inactive)	29.1 µM (inactive)	–	–	–	–
Brc1cc(C2OCCCO2)ccc1OCc1ccccc1	52.8 µM (inactive)	31.2 µM (inactive)	27.4 µM (inactive)	31.8 µM (inactive)	47.9 µM (inactive)	30.1 µM (inactive)	64.6 µM (inactive)	40.4 µM (inactive)	29.6 µM (inactive)	52.4 µM (inactive)	45.3 µM (inactive)	88.7 µM (inactive)	54 µM (inactive)	34.5 µM (inactive)	52.8 µM (inactive)	–	–	–	–
O=C(/C=C/c1c(O)ccc2ccccc12)c1ccccc1Cl	67.9 µM (inactive)	39 µM (inactive)	17.8 µM (inactive)	18.5 µM (inactive)	15.8 µM (inactive)	24.2 µM (inactive)	32.5 µM (inactive)	60.8 µM (inactive)	> 100 µM (inactive)	49.1 µM (inactive)	25.3 µM (inactive)	49.8 µM (inactive)	81.5 µM (inactive)	20.2 µM (inactive)	23.2 µM (inactive)	–	–	–	–
N#C/C(=C\c1cc(OCc2ccccc2)c(OCc2ccccc2)cn1)C(N)=O	> 100 µM (inactive)	> 100 µM (inactive)	> 100 µM (inactive)	> 100 µM (inactive)	> 100 µM (inactive)	> 100 µM (inactive)	> 100 µM (inactive)	> 100 µM (inactive)	> 100 µM (inactive)	> 100 µM (inactive)	36.7 µM (inactive)	> 100 µM (inactive)	> 100 µM (inactive)	26.2 µM (inactive)	> 100 µM (inactive)	–	–	–	–
Cn1cnc([N+](=O)[O-])c1Sc1n[nH]c(-c2ccc(Cl)cc2)n1	23.9 µM (inactive)	18.3 µM (inactive)	17.1 µM (inactive)	11.1 µM (inactive)	14.4 µM (inactive)	21.7 µM (inactive)	25.3 µM (inactive)	20.3 µM (inactive)	23.4 µM (inactive)	19.1 µM (inactive)	18.6 µM (inactive)	20.7 µM (inactive)	25.1 µM (inactive)	13.7 µM (inactive)	23.4 µM (inactive)	–	–	–	–
CC(=O)CN/C(C)=N/Nc1ccc([N+](=O)[O-])cc1[N+](=O)[O-]	52.2 µM (inactive)	> 100 µM (inactive)	> 100 µM (inactive)	70.5 µM (inactive)	80.9 µM (inactive)	> 100 µM (inactive)	> 100 µM (inactive)	> 100 µM (inactive)	> 100 µM (inactive)	> 100 µM (inactive)	> 100 µM (inactive)	> 100 µM (inactive)	15.3 µM (inactive)	5.2 µM (inactive)	> 100 µM (inactive)	> 100 µM (inactive)	> 100 µM (inactive)	> 100 µM (inactive)	> 100 µM (inactive)
OCC1OC2c3ccccc3COC2C1OCc1ccccc1 (configuration not stated)	> 100 µM (inactive)	> 100 µM (inactive)	> 100 µM (inactive)	> 100 µM (inactive)	69.5 µM (inactive)	> 100 µM (inactive)	> 100 µM (inactive)	> 100 µM (inactive)	> 100 µM (inactive)	> 100 µM (inactive)	> 100 µM (inactive)	> 100 µM (inactive)	96.8 µM (inactive)	96.4 µM (inactive)	88.9 µM (inactive)	–	–	–	–
C=C(C)[C@H]1CC(=O)[C@@]2(C)C[C@H]3O[C@]3(C)CC/C=C(\C)CC[C@H]12	40.5 µM (inactive)	42.1 µM (inactive)	20.8 µM (inactive)	44.6 µM (inactive)	28.1 µM (inactive)	42.3 µM (inactive)	58.1 µM (inactive)	62.8 µM (inactive)	86.9 µM (inactive)	57.1 µM (inactive)	58.3 µM (inactive)	70 µM (inactive)	28.2 µM (inactive)	18 µM (inactive)	> 100 µM (inactive)	–	43.8 µM (inactive)	34.7 µM (inactive)	84.1 µM (inactive)
COc1ccc(C(Cl)=C(c2ccc(OCCN(C)C)cc2)c2ccc(OCCN(C)C)cc2)cc1	5.11 µM (inactive)	2.49 µM (inactive)	1.39 µM (inactive)	1.81 µM (inactive)	1.7 µM (inactive)	1.35 µM (inactive)	1.83 µM (inactive)	1.27 µM (inactive)	1.73 µM (inactive)	1.58 µM (inactive)	1.44 µM (inactive)	2.42 µM (inactive)	4.6 µM (inactive)	1.37 µM (inactive)	1.74 µM (inactive)	–	–	–	–
COc1ccc(Cn2nc(OCc3ccccc3)c3cc([N+](=O)[O-])ccc32)cc1	–	–	–	> 100 µM (inactive)	> 100 µM (inactive)	> 100 µM (inactive)	> 100 µM (inactive)	> 100 µM (inactive)	> 100 µM (inactive)	–	> 100 µM (inactive)	> 100 µM (inactive)	–	> 100 µM (inactive)	> 100 µM (inactive)	> 100 µM (inactive)	> 100 µM (inactive)	–	> 100 µM (inactive)
Cc1ccc(C)c(NC(=O)CC/C(=N\NC(=O)c2c(O)ccc3ccccc23)C(C)C(=O)c2ccc(O)cc2)c1 (configuration not stated)	–	29.9 µM (inactive)	25.2 µM (inactive)	34.8 µM (inactive)	17.3 µM (inactive)	41.3 µM (inactive)	65 µM (inactive)	28.5 µM (inactive)	37.5 µM (inactive)	17.9 µM (inactive)	20.2 µM (inactive)	11.6 µM (inactive)	65.2 µM (inactive)	32.8 µM (inactive)	37.2 µM (inactive)	–	–	–	–
COc1cc(C[P+](c2ccccc2)(c2ccccc2)c2ccccc2)cc(OC)c1OC	> 100 µM (inactive)	> 100 µM (inactive)	> 100 µM (inactive)	> 100 µM (inactive)	> 100 µM (inactive)	> 100 µM (inactive)	> 100 µM (inactive)	> 100 µM (inactive)	> 100 µM (inactive)	> 100 µM (inactive)	> 100 µM (inactive)	> 100 µM (inactive)	> 100 µM (inactive)	> 100 µM (inactive)	> 100 µM (inactive)	–	–	–	–
COc1cc([N+](=O)[O-])c(S(=O)(=O)[O-])cc1-[n+]1nc(C(=O)Nc2ccccc2)nn1-c1ccc([N+](=O)[O-])c(S(=O)(=O)O)c1	> 100 µM (inactive)	> 100 µM (inactive)	> 100 µM (inactive)	> 100 µM (inactive)	> 100 µM (inactive)	> 100 µM (inactive)	> 100 µM (inactive)	> 100 µM (inactive)	> 100 µM (inactive)	> 100 µM (inactive)	> 100 µM (inactive)	> 100 µM (inactive)	> 100 µM (inactive)	> 100 µM (inactive)	> 100 µM (inactive)	> 100 µM (inactive)	> 100 µM (inactive)	> 100 µM (inactive)	52.2 µM (inactive)
CC(N)Cc1ccc(Cl)cc1 (configuration not stated)	> 100 µM (inactive)	> 100 µM (inactive)	> 100 µM (inactive)	> 100 µM (inactive)	> 100 µM (inactive)	> 100 µM (inactive)	> 100 µM (inactive)	> 100 µM (inactive)	58.5 µM (inactive)	59.4 µM (inactive)	> 100 µM (inactive)	> 100 µM (inactive)	> 100 µM (inactive)	50.6 µM (inactive)	47.9 µM (inactive)	–	–	–	–
CN(C)CCCNc1ccc2c(=O)n(CCN(C)C)c(=O)n3c4ccccc4c(=O)c1c23	0.272 µM (active)	0.224 µM (active)	0.127 µM (active)	0.286 µM (active)	0.342 µM (active)	0.0637 µM (active)	0.155 µM (active)	0.0419 µM (active)	0.356 µM (active)	0.355 µM (active)	1.1 µM (active)	0.132 µM (active)	0.211 µM (active)	0.0512 µM (active)	0.245 µM (active)	1.49 µM (inactive)	0.259 µM (active)	0.258 µM (active)	0.164 µM (active)
CC(C)(C)OC(=O)NC(Cc1ccccc1)C(=O)NC(Cc1ccccc1)C(=O)NCC(=O)OCc1ccccc1 (stereo not drawn) (Boc-Phe-Phe-Gly-OBn; configuration not given here)	45 µM (inactive)	24.7 µM (inactive)	29.8 µM (inactive)	44.5 µM (inactive)	16.3 µM (inactive)	12.8 µM (inactive)	–	17.1 µM (inactive)	37.5 µM (inactive)	41 µM (inactive)	37.8 µM (inactive)	35 µM (inactive)	57.4 µM (inactive)	12.5 µM (inactive)	> 10 µM (inactive)	–	8.36 µM (inactive)	16.3 µM (inactive)	> 10 µM (inactive)
NS(=O)(=O)c1cc2c(cc1Cl)NCNS2(=O)=O [HYDROCHLOROTHIAZIDE]	> 100 µM (inactive)	> 100 µM (inactive)	> 100 µM (inactive)	> 100 µM (inactive)	–	> 100 µM (inactive)	> 100 µM (inactive)	> 100 µM (inactive)	> 100 µM (inactive)	> 100 µM (inactive)	> 100 µM (inactive)	> 100 µM (inactive)	> 100 µM (inactive)	> 100 µM (inactive)	> 100 µM (inactive)	> 100 µM (inactive)	> 100 µM (inactive)	> 100 µM (inactive)	> 100 µM (inactive)
